# Measured values from patent US12590961B2, “Quantum dot conjugated virus spike protein for cell-based bio-sensing systems and drug screening” (priority 2020, dated 2026).
# Tested on: ACE2-GFP HEK293T cells
# Type: cell-based, human
smiles,measurement,value
O=C(N/N=C/c1cc(O)c(O)cc1O)c1cc2ccccc2cc1O [Dyngo-4a],"blocking of endo(RBD-ACE2), QD608-RBD induced translocation of ACE2-GFP",robustly blocked
same,"effect on ACE2-GFP localization, compound alone",did not affect the ACE2-GFP localization
